Assay results reported in the NIST ThermoML archive (doi:10.1016/j.jct.2014.05.019).

Tests used:
[1] = cn = amount concentration of the nth substance listed, in mol/dm3; settings: 100 kPa, Liquid, Alternating current cell with electrodes, c1 = 0.1
[2] = refractive index (Na D-line) (dimensionless); settings: 101.33 kPa, Liquid, Standard Abbe refractometry
[3] = 101.33 kPa, Liquid; for viscosity: Falling or rolling sphere viscometry; for mass density: Vibrating tube method

[Cl-].[K+] [potassium chloride] + O
[1]
Settings	electrical conductivity [S/m]
288.15 K	1.05
293.15 K	1.16
295.15 K	1.21
297.15 K	1.26
298.15 K	1.29
299.15 K	1.31
301.15 K	1.36
303.15 K	1.41
308.15 K	1.54
313.15 K	1.67
318.15 K	1.8
323.15 K	1.91

O [water]
Settings	mass density, [3] [kg/m3]	refractive index, [2]	viscosity, [3] [mPa·s]
298.15 K	–	1.33247	–
303.15 K	–	1.33188	0.798
308.15 K	–	1.33124	0.719
313.15 K	992.3	1.33053	0.654
318.15 K	990.3	1.32974	0.595
323.15 K	988.2	1.3289	0.546
328.15 K	985.9	1.32799	0.506
333.15 K	983.4	1.32704	0.466
338.15 K	980.8	1.32605	0.435
343.15 K	978	1.32503	0.408
